From article PMC13126677 (Journal of Medicinal Chemistry, 2026)
≈ marks a conversion by molar mass, not a printed value.

What was measured:
[1] = test system: procoagulant activity of E. romani venom; settings: read-out: Coagulation assay EC50 E. romani; 10 ng E. romani venom, citrated bovine plasma; mean of n ≥ 3, range in brackets
Experimental: (§1) This assay consists of preincubating venom (or venom vehicle control) at a species-specific dose with the compound of interest (or compound vehicle control), then adding citrated bovine plasma to the wells and activating the clotting cascade with calcium chloride. […] Compounds of interest were stamped onto 384-well plates at a volume of 0.5 μL and a concentration of 10 mM in 100% DMSO. Positive and negative control wells were stamped with 0.5 μL of 100% DMSO. To the test wells and the venom-only positive control wells, 10 μL of venom diluted to 1 μg/mL (E. romani) or 10 μg/mL (B. jararaca) in PBS was added, giving a final well amount of 10 ng (E. romani) or 100 ng (B. jararaca) per well. In the no venom negative control wells, 10 μL of PBS was added. The plates were then sealed, span briefly in a Platefuge and incubated at 37 °C for 25 min to allow venom-inhibitor interaction. While the plates were incubating, sufficient citrated bovine plasma (S0260, BioWest) to allow 20 μL/well was centrifuged at 3120 RCF for 5 min to remove any residual cellular debris and the supernatant was collected. The 384-well plates were removed from the incubator for 5 min to allow acclimation to room temperature, then 20 μL/well of 20 mM CaCl2 was added and immediately followed by the addition of 20 μL/well of centrifuged citrated bovine plasma, both via a Multidrop Combi reagent dispenser (5840330, Thermo Fisher Scientific). The plates were then read kinetically using an absorbance protocol on a CLARIOStar microplate reader at 595 nm for 60 min. […] Dose response plates were conducted identically and the % inhibition values at each dose were used to draw EC50 curves to estimate the EC50 value of each compound tested. All coagulation experiments were repeated independently a minimum of three times.

[2] = test system: procoagulant activity of B. jararaca venom; settings: read-out: Coagulation assay EC50 B. jararaca; 100 ng B. jararaca venom, citrated bovine plasma; mean of n ≥ 3, range in brackets
Experimental: as §1

[3] = test system: procoagulant venom activity (E. romani and B. jararaca); settings: in words; coagulation assay
Experimental: as §1

[4] = test system: E. romani P–I, P–II and P–III SVMPs; settings: gel; for protection against degradation of fibrinogen: P–I, P–II, P–III SVMPs, drug 10 μM (P–I, P–II), 400 nM (P–III)
Experimental: (§2) Evaluation of SVMP toxin activity of human prothrombin and fibrinogen and inhibition by test compounds was performed by SDS-PAGE degradation gel electrophoresis using venom-purified toxins. P–I, P–II and P–III SVMPs were isolated using an adaptation of the method of Howes et al. Whole E. romani venom (15 mg) was initially separated using size exclusion chromatography (SEC) on a 120 mL column of Superdex 75 (Cytiva). The P–II SVMP (22 kDa) was pure and ready to use at this stage. P–I and P–III SVMP containing peaks were separately applied to a 1 mL high resolution hydrophobic interaction chromatography (HIC) column (SOURCE 15PHE, Cytiva). […] The P–I eluted as two peaks of proteins with identical molecular weight (21 kDa) which were combined back together. The P–III-containing fraction from SEC eluted from HIC as multiple peaks of P–III SVMP isoforms, well separated from the earlier eluting L-amino acid oxidase and high molecular weight C-type lectin-like proteins. The proteins in the PIII-containing peaks were pooled back together.
Degradation of human fibrinogen was measured in a similar manner. Human fibrinogen (Merck) was added at 5 μg/reaction and incubated with the different SVMP isoforms in the presence or absence of drugs. Drug concentrations used were 10 μM for P–I and P–II SVMP and 400 nM for P–III SVMP. The reactions consisted of 200 ng SVMP isoform and the appropriate concentration of drug, which were then incubated for 30 min at 37 °C in a water bath. Five micrograms of fibrinogen were then added and the samples incubated for another hour at 37 °C, before separation by SDS-PAGE as described above.

[5] = test system: E. romani P–I and P–III SVMPs; settings: drug 2 μM, gel
Experimental: as §2
Prothrombin degradation was measured by incubating 2 μg of human prothrombin (Hematologic Technologies INC) in the presence or absence of drug and the P–I, P–II, and P–III SVMPs. […] Briefly, drug or DMSO and 200 ng of purified SVMP isoform were incubated for 30 min at 37 °C in a water bath, after which 2 μg of human prothrombin were added and the samples incubated for another hour at 37 °C. Drug concentrations used were 2 μM for P–I and P–III SVMPs. Samples were then processed for loading onto a 4–20% SDS-PAGE gel (Biorad) and were run under reducing conditions for 45 min at 180 V. The gels were stained with Coomassie Brilliant Blue R250 and degradation profiles were visualized and images captured using a GelDoc (Biorad).

[6] = test system: SVMP activity of Echis romani venom; settings: read-out: Inhibition of SVMP enzymatic activity EC50 ERO; E. romani venom; mean of n ≥ 3, range in brackets
Experimental: (§3) Throughout our medicinal chemistry campaign, compounds were evaluated for their ability to inhibit enzymatic SVMP toxin activity in vitro using a previously described fluorescent-based substrate cleavage assay against five medically important viper venoms, namely Echis romani (Roman’s carpet viper, West Africa), Crotalus atrox (Western diamondback rattlesnake, North America), Calloselasma rhodostoma (Malayan pit viper, South East Asia), Bothrops jararaca (jararaca, South America) and Bitis arietans (puff adder, Africa).
(§4) Compounds of interest were stamped onto 384-well plates at a volume of 0.91 μL at a concentration of 1 mM in 100% DMSO (D2650, Sigma-Aldrich). Positive and negative control wells were stamped with 0.91 μL of 100% DMSO. To the test wells and the venom-only positive control wells, 15 μL of venom diluted to 0.066 μg/mL in PBS was added, giving a final amount of 1 μg/well. In the no venom negative control wells, 15 μL of PBS was added. The plates were then sealed, span briefly in a Platefuge (C2000, Benchmark Scientific) and incubated at 37 °C for 25 min to allow venom-inhibitor interaction. […] Dose response plates were conducted identically and the % inhibition values at each dose were used to draw EC50 curves to estimate the EC50 value of each compound tested. All SVMP experiments were repeated independently a minimum of three times.

[7] = test system: SVMP activity of Bothrops jararaca venom; settings: read-out: Inhibition of SVMP enzymatic activity EC50 BJA; B. jararaca venom; mean of n ≥ 3, range in brackets
Experimental: as §3, §4

[8] = test system: SVMP activity of Bitis arietans venom; settings: read-out: Inhibition of SVMP enzymatic activity EC50 BAR; B. arietans venom; mean of n ≥ 3, range in brackets
Experimental: as §3, §4

[9] = test system: SVMP activity of Crotalus atrox venom; settings: read-out: Inhibition of SVMP enzymatic activity EC50 CAT; C. atrox venom; mean of n ≥ 3, range in brackets
Experimental: as §3, §4

[10] = test system: SVMP activity of Calloselasma rhodostoma venom; settings: read-out: Inhibition of SVMP enzymatic activity EC50 CRH; C. rhodostoma venom; mean of n ≥ 3, range in brackets
Experimental: as §3, §4

[11] = test system: E. romani venom in human whole blood; settings: venom 60 ng plus drug 5 μM
Experimental: We measured the coagulation profile of whole human blood using thromboelastography, and compared with venom stimulated, and venom and drug stimulated, clotting profiles. […] Blood samples were collected in ACD-A blood tubes. Using a ROTEM delta (Werfen) a final volume of 300 μL blood per reaction was pipetted into prewarmed cups (37 °C), with four channels per run. Whole blood was warmed for 5 min at 37 °C, during which time 12 μL of E. romani venom (5 ng/nL concentration, 60 ng dose), 15 μL of DMSO vehicle or test compounds (5 μM final concentration, 0.2% DMSO), and 20 μL of Startem reagent (CaCl2, Werfen) was prepared. The maximum incubation time of venom and inhibitors was 2 min, before 253 μL of whole blood were added and mixed before reading on the ROTEM delta. The commonly used parameters of clotting time and maximum clot firmness (MCF) were reported, from a minimum of three independent measurements per experimental group.

E. romani venom = settings: venom 10 μg/egg, drug 1 μg/egg; 1 h postvenom images; in words
Experimental: Fertile hens eggs were supplied on day 1 post fertilization from UK supplier MedEggs Ltd. Eggs were immediately placed horizontally to incubate at 37 °C until day 5 of development. Candling was conducted to mark the position of the embryo to guide windowing. Any infertile eggs were removed at this stage. To access the embryos, all fertile eggs were then windowed under laminar flow. In brief, 6–8 mL of albumin was removed using a 23G needle. The area marking the position of the embryo was then covered with medical tape, and a dish of shell removed using sharp dissection scissors. The exposed embryo was then covered using parafilm and the egg returned to the incubator overnight. Surviving embryos were then randomly allocated into groups of n = 5. […] Treatments were given in a total volume of 10 μL, administered directly onto (i.e., topically) the vitelline vein. Embryos were returned to the incubator immediately following dosing, and then observed at 1, 2, 4, and 6 h. Survival was monitored via the observation of a heartbeat. Venom pathology was captured using a Motic SMZ 171-TLED microscope system. In brief, at each observation time point (1, 2, 4, and 6 h post envenoming) images were captured using a Moticam X5 Wi-Fi camera. To track changes across the experimental time course, the imaging position was kept consistent at each time point for individual embryos.

physchem [12] = settings: organic solvent / aqueous solvent at pH 7.4, pH 7.4
Experimental: (§5) The DMPK properties data described in the manuscript were measured via a high-throughput platform by AstraZeneca (United Kingdom).

physchem [13] = settings: aqueous medium at pH 7.4, pH 7.4, aqueous buffer
Experimental: as §5

in vitro [14] = settings: rat, hepatocytes
Experimental: as §5

in vitro [15] = settings: human, microsomes
Experimental: as §5

Experimental for human plasma protein: as §5

| Compound | EC50 [1] [µM] | EC50 [2] [µM] | inhibition of procoagulant venom activity [3] | protection against degradation of fibrinogen [4] | protection against prothrombin degradation [5] | EC50 [6] [µM] | EC50 [7] [µM] | EC50 [8] [µM] | EC50 [9] [µM] | EC50 [10] [µM] | Human Protein binding (%free) (human plasma protein) | protection against fibrinogen degradation by P–II SVMP ([4]; P–II SVMP, drug 10 μM) | reduction of venom-induced MCF [11] [%] | effect on clotting time ([11]; in words) | venom-induced hemorrhage in embryos (E. romani venom) | logD (physchem [12]) | solubility (physchem [13]) [µM] | hepatocyte CLint (in vitro [14]) [µL/min/1e6 cells] | microsomal CLint (in vitro [15]) [µL/min/mg] |
| --- | --- | --- | --- | --- | --- | --- | --- | --- | --- | --- | --- | --- | --- | --- | --- | --- | --- | --- | --- |
| CC1(C)SCCN(S(=O)(=O)c2ccc(Oc3ccncc3)cc2)[C@H]1C(=O)NO [Prinomastat, prinomastat, reference compound] | 0.558 | 0.972 | demonstrated inhibition of procoagulant activity | protected against the degradation of fibrinogen | almost full protection | – | – | – | – | – | – | – | – | – | – | – | – | – | – |
| COCCOC(=O)N1CCN(S(=O)(=O)c2cc(F)c(Oc3ccc(Cl)cc3)c(F)c2)[C@@H](C(=O)NO)C1 [XL-784, reference compound] | > 10 | > 10 | inactive | protected against the degradation of fibrinogen | unable to protect against prothrombin degradation | 0.0097 | 0.0644 | 0.0129 | 0.0506 | 0.0934 | 0.3 | inferior against P–II SVMP activity | 28.9 | no effect on clotting time | no evidence of hemorrhage | 3.2 | 316 (≈ 174 µg/mL) | 67.3 | 100 |
| COCCN1CCN(S(=O)(=O)c2ccc(Oc3ccc(Cl)cc3)cc2)[C@@H](C(=O)NO)C1 [compound 15, (R)-1-((4-(4-Chlorophenoxy)phenyl)sulfonyl)-N-hydroxy-4-(2-methoxyethyl)piperazine-2-carboxamide] | – | – | – | – | – | 0.0079 | 0.232 | 0.0199 | 0.0479 | 0.0225 | 2.3 | – | – | – | – | 2.4 | 431 (≈ 203 µg/mL) | > 300 | < 3 |
| COCCN1CCN(S(=O)(=O)c2ccc(Oc3ccc(OC(F)(F)F)cc3)cc2)[C@@H](C(=O)NO)C1 [compound 16, (R)-N-Hydroxy-4-(2-methoxyethyl)-1-((4-(4-(trifluoromethoxy)phenoxy)phenyl)sulfonyl)piperazine-2-carboxamide] | – | – | – | – | – | 0.0159 | 0.856 | 0.0278 | 0.0769 | 0.0793 | 3.0 | – | – | – | – | 2.9 | 437 (≈ 227 µg/mL) | 65.6 | 8 |
| COCCN1CCN(S(=O)(=O)c2ccc(Oc3ccc(OC)cc3)cc2)[C@@H](C(=O)NO)C1 [compound 17, (R)-N-Hydroxy-4-(2-methoxyethyl)-1-((4-(4-methoxyphenoxy)phenyl)sulfonyl)piperazine-2-carboxamide] | – | – | – | – | – | 0.0011 | 0.209 | 0.0104 | 0.0311 | 0.0119 | 6.4 | – | – | – | – | 1.9 | 236 (≈ 110 µg/mL) | 209 | > 300 |
| COc1ccc(S(=O)(=O)N2CCNC[C@@H]2C(=O)NO)cc1.Cl [compound 18, (R)-N-Hydroxy-1-((4-methoxyphenyl)sulfonyl)piperazine-2-carboxamide hydrochloride salt] | – | – | – | – | – | 0.0476 | 0.0561 | 0.0247 | 0.0693 | 0.0833 | 91 | – | – | – | – | -0.2 | 231 | 6.3 | < 3 |
| COc1ccc(S(=O)(=O)N2CCN(S(C)(=O)=O)C[C@@H]2C(=O)NO)cc1 [compound 19, (R)-N-Hydroxy-1-((4-methoxyphenyl)sulfonyl)-4-(methylsulfonyl)piperazine-2-carboxamide] | 0.496 | 0.509 | – | – | – | 0.0109 | 0.02 | 0.0143 | 0.0453 | 0.0629 | 88 | – | – | – | – | -0.3 | < 1000 | 8.9 | < 3 |
| COCCN1CCN(S(=O)(=O)c2ccc(OC)cc2)[C@@H](C(=O)NO)C1 [compound 20, (R)-N-Hydroxy-4-(2-methoxyethyl)-1-((4-methoxyphenyl)sulfonyl)piperazine-2-carboxamide] | > 10 | > 10 | inactive | – | – | 0.0619 | 0.0862 | 0.0111 | 0.0689 | 0.137 | 82 | – | – | – | – | 0.1 | > 1000 | 57.1 | < 3 |
| COc1ccc(S(=O)(=O)N2CCN(S(=O)(=O)c3ccc(OC)cc3)[C@@H](C(=O)NO)C2)cc1 [compound 21, (R)-N-Hydroxy-1,4-bis((4-methoxyphenyl)sulfonyl)piperazine-2-carboxamide] | 4.59 | 3.92 | – | – | – | 0.015 | 0.0182 | 0.0106 | 0.0325 | 0.0588 | 30 | – | – | – | – | 1 | 25 (≈ 12.1 µg/mL) | 199 | 10.2 |
| COc1ccc(S(=O)(=O)N2CCN(S(=O)(=O)c3c(C)noc3C)C[C@@H]2C(=O)NO)cc1 [compound 22, (R)-4-((3,5-Dimethylisoxazol-4-yl)sulfonyl)-N-hydroxy-1-((4-methoxyphenyl)sulfonyl)piperazine-2-carboxamide] | 4.85 | 1.09 | – | – | – | 0.0107 | 0.0178 | 0.0098 | 0.035 | 0.0533 | 51 | – | – | – | – | 0.7 | > 1000 | 44 | 17.5 |
| COCCN1CCN(S(=O)(=O)c2ccc(Oc3ccc(C(F)(F)F)cc3)cc2)[C@@H](C(=O)NO)C1 [compound 28, (R)-N-Hydroxy-4-(2-methoxyethyl)-1-((4-(4-(trifluoromethyl)phenoxy)phenyl)sulfonyl)piperazine-2-carboxamide] | – | – | – | – | – | 0.0076 | 1.51 | 0.0395 | 0.0688 | 0.0959 | 3.4 | – | – | – | – | 2.7 | 320 (≈ 161 µg/mL) | 22.8 | 8.6 |
| COCCN1CCN(S(=O)(=O)c2ccc(-c3ccc(Cl)cc3)cc2)[C@@H](C(=O)NO)C1 [compound 29, (R)-1-((4′-Chloro-[1,1′-biphenyl]-4-yl)sulfonyl)-N-hydroxy-4-(2-methoxyethyl)piperazine-2-carboxamide] | > 10 | > 10 | inactive | – | – | 0.0161 | 0.0389 | 0.0035 | 0.0527 | 0.22 | 5.2 | – | – | – | – | 2.5 | 310 (≈ 141 µg/mL) | 21.1 | 5.1 |
| COCCN1CCN(S(=O)(=O)c2ccc(-c3ccc(F)cc3)cc2)[C@@H](C(=O)NO)C1 [compound 30, (R)-1-((4′-Fluoro-[1,1′-biphenyl]-4-yl)sulfonyl)-N-hydroxy-4-(2-methoxyethyl)piperazine-2-carboxamide] | > 10 | > 10 | inactive | – | – | 0.0185 | 0.0271 | 0.0018 | 0.0186 | 0.125 | 14.0 | – | – | – | – | 1.9 | 468 (≈ 205 µg/mL) | > 300 | 7.1 |
